Measurements from ChEMBL document CHEMBL3407361, “Structural exploration, synthesis and pharmacological evaluation of novel 5-benzylidenethiazolidine-2,4-dione derivatives as iNOS inhibitors against inflammatory diseases” (Eur J Med Chem, 2015).
≈ marks a conversion by molar mass, not a printed value. Calls of active or inactive are those of the source. No cut-off for these calls is given here.

Tests used:
RAW264.7 [1] = test: Inhibition of LPS-induced nitric oxide production in mouse RAW264.7 cells pre-incubated at 100 uM for 2 hrs before LPS challenge measured 18 hrs post LPS challenge by Griess method; assay type: functional, cell-based
[2] = Solubility in PBS at pH 7.4 assessed as maximum soluble concentration at 25 degC by nephelometry; assay type: physicochemical
RAW264.7 [3] = test: Inhibition of LPS-induced nitric oxide production in mouse RAW264.7 cells pre-incubated for 2 hrs before LPS challenge measured 18 hrs post LPS challenge by Griess method; assay type: functional, cell-based
RAW264.7 [4] = test: cells; details: Mus musculus, RAW264.7, 24 h
Description: Cytotoxicity against mouse RAW264.7 cells after 24 hrs by MTT assay

[5] = AUC (0 to t) in Sprague-Dawley rat at 20 mg/kg, po; assay type: ADME, organism-based; parameters: dose 20 mg/kg, route oral; details: plasma
Rattus norvegicus = test: Antiinflammatory activity in CFA-induced Lewis rat arthritis model at 10 mg/kg, po; assay type: functional, organism-based; parameters: dose 10 mg/kg
[6] = Tmax in Sprague-Dawley rat at 20 mg/kg, po; assay type: ADME, organism-based; parameters: dose 20 mg/kg, route oral; details: in vivo
[7] = Half life in Sprague-Dawley rat at 5 mg/kg; assay type: ADME, organism-based; parameters: dose 5 mg/kg; details: in vivo
[8] = Solubility in EtOH assessed as maximum soluble concentration at 25 degC by nephelometry; assay type: physicochemical; details: ethanol
RAW264.7 [9] = test: Cytotoxicity against LPS-stimulated mouse RAW264.7 cells after 24 hrs by MTT assay; assay type: cell-based; details: RAW264.7, 24 h
[10] = Tmax in Sprague-Dawley rat at 5 mg/kg; assay type: ADME, organism-based; parameters: dose 5 mg/kg; details: in vivo
[11] = Cmax in Sprague-Dawley rat at 5 mg/kg; assay type: ADME, organism-based; parameters: dose 5 mg/kg; details: in vivo
[12] = biological target: T1, Nitric oxide synthase, inducible (Mus musculus, UniProt P29477); test: Inhibition of iNOS-induced nitric oxide production in LPS-stimulated mouse RAW264.7 cells pre-incubated for 2 hrs before LPS challenge by fluorescence assay; assay type: cell-based
T1 sequence (P29477 whole entry): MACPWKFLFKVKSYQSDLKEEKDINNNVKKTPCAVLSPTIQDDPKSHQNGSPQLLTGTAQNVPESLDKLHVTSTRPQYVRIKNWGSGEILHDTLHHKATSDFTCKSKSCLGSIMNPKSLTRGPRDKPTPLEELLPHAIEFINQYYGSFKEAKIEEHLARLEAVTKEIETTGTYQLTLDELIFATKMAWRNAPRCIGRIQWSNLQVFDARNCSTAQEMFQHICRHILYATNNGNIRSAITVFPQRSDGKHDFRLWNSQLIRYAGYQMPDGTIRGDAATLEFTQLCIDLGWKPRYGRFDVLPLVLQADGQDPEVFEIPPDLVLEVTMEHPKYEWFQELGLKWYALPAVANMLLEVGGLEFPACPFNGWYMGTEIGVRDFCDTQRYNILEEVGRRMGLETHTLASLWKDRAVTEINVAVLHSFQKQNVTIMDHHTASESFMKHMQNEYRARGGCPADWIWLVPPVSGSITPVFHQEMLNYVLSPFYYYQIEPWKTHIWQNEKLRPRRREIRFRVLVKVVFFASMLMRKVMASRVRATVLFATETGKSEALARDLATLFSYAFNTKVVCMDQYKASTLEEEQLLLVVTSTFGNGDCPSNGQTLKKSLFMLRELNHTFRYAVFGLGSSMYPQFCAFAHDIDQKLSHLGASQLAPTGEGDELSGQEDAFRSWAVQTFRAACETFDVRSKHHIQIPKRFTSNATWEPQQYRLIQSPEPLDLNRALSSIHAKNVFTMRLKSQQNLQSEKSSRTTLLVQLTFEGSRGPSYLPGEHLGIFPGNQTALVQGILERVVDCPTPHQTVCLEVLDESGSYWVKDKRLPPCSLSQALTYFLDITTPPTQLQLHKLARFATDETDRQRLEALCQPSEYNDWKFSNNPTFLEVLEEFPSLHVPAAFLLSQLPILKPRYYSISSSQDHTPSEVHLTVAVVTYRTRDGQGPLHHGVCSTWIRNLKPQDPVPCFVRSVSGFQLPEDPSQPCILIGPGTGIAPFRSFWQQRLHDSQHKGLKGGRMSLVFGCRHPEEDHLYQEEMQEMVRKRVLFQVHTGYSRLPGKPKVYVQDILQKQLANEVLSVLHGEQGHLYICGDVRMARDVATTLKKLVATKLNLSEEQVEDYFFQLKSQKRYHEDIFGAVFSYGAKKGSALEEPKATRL

[13] = Cmax in Sprague-Dawley rat at 20 mg/kg, po; assay type: ADME, organism-based; parameters: dose 20 mg/kg, route oral; details: in vivo
[14] = AUC (0 to t) in Sprague-Dawley rat at 5 mg/kg; assay type: ADME, organism-based; parameters: dose 5 mg/kg; details: plasma
Mus musculus = test: Antiinflammatory activity in ICR mouse assessed as inhibition of carrageenan-induced paw edema at 10 mg/kg, po administered 30 mins before carrageenan challenge measured after 2 hrs; assay type: functional
[15] = Oral bioavailability in Sprague-Dawley rat at 20 mg/kg; assay type: ADME, organism-based; details: in vivo
[16] = Half life in Sprague-Dawley rat at 20 mg/kg, po; assay type: ADME, organism-based; parameters: dose 20 mg/kg, route oral; details: in vivo

SMILES: O=C(COc1cccc(/C=C2\SC(=O)NC2=O)c1)Nc1cccc(Cl)c1
- inhibition (RAW264.7 [1]): Active

SMILES: O=C(COc1ccc(/C=C2\SC(=O)N(CCN3CCCCC3)C2=O)cc1)Nc1cccc(Cl)c1
- inhibition (RAW264.7 [1]): Active

SMILES: O=C(COc1ccc(/C=C2\SC(=O)N(CCN3CCCC3)C2=O)cc1)Nc1cccc(Cl)c1
- inhibition (RAW264.7 [1]): Active

SMILES: COc1cc(/C=C2\SC(=O)NC2=O)cc(OC)c1OCC(=O)Nc1cccc(Cl)c1
- solubility kinetic [2]: < 500 µg/mL
- IC50 (RAW264.7 [3]): 45.6 µM
- IC50 (RAW264.7 [4]): > 80 µM
- AUC(0-t) [5]: 421 ng·h/mL
- inhibition (RAW264.7 [1]): Active
- Activity (Rattus norvegicus): Active
- Tmax [6]: 2.27 h
- half-life [7]: 7.83 h
- solubility kinetic [8]: 3100 µg/mL (≈ 6.91 mM)
- IC50 (RAW264.7 [9]): > 80 µM
- Tmax [10]: 4.2 min
- Cmax [11]: 332 ng/mL
- IC50 [12]: 25.2 µM
- Cmax [13]: 46.2 ng/mL
- AUC(0-t) [14]: 387 ng·h/mL
- inhibition in vivo at 10 mg/kg (Mus musculus): 26.1%
- bioavailability [15]: 27.2%
- half-life [16]: 5.9 h

SMILES: O=C(O)CN1C(=O)/C(=C/c2ccc(OCC(=O)Nc3cccc(Cl)c3)cc2)SC1=S
- IC50 (RAW264.7 [3]): 68.9 µM
- IC50 (RAW264.7 [4]): > 80 µM
- inhibition (RAW264.7 [1]): Active
- IC50 (RAW264.7 [9]): > 80 µM
- IC50 [12]: 47.8 µM

SMILES: COCN1C(=O)S/C(=C\c2ccc(OCC(=O)Nc3cccc(Cl)c3)cc2)C1=O
- IC50 (RAW264.7 [3]): > 80 µM
- IC50 (RAW264.7 [4]): 68.4 µM
- IC50 (RAW264.7 [9]): 72.5 µM

SMILES: O=C(COc1ccc(C=C2C(=O)NC(=S)NC2=O)cc1)Nc1cccc(Cl)c1
- inhibition (RAW264.7 [1]): Active

SMILES: O=C(COc1ccc(/C=C2\SC(=O)N(CC(=O)Nc3ccccc3)C2=O)cc1)Nc1cccc(Cl)c1
- inhibition (RAW264.7 [1]): Active

SMILES: O=C(COc1ccc(/C=C2\NC(=O)N(Cc3ccccc3)C2=O)cc1)Nc1cccc(Cl)c1
- IC50 (RAW264.7 [3]): 75.4 µM
- IC50 (RAW264.7 [4]): > 80 µM
- inhibition (RAW264.7 [1]): Active
- IC50 (RAW264.7 [9]): 46.3 µM
- IC50 [12]: 43.2 µM

SMILES: COC(=O)CCN1C(=O)S/C(=C\c2ccc(OCC(=O)Nc3cccc(Cl)c3)cc2)C1=O
- inhibition (RAW264.7 [1]): Active

SMILES: N=C1NC(=O)/C(=C/c2ccc(OCC(=O)Nc3cccc(Cl)c3)cc2)S1
- inhibition (RAW264.7 [1]): Active

SMILES: O=C(COc1ccc(/C=C2\SC(=O)NC2=O)cc1)Nc1cccc(Cl)c1
- solubility kinetic [2]: < 500 µg/mL
- IC50 (RAW264.7 [3]): 21.3 µM
- IC50 (RAW264.7 [4]): > 80 µM
- solubility kinetic [8]: 1500 µg/mL (≈ 3.86 mM)
- IC50 (RAW264.7 [9]): > 80 µM
- inhibition in vivo at 10 mg/kg (Mus musculus): 37.8%

SMILES: C#CCN1C(=O)S/C(=C\c2ccc(OCC(=O)Nc3cccc(Cl)c3)cc2)C1=O
- inhibition (RAW264.7 [1]): Active

SMILES: CC(CN(C)C)CN1C(=O)S/C(=C\c2ccc(OCC(=O)Nc3cccc(Cl)c3)cc2)C1=O (centres undefined)
- IC50 (RAW264.7 [3]): 53.2 µM
- IC50 (RAW264.7 [4]): > 80 µM
- inhibition (RAW264.7 [1]): Active
- IC50 (RAW264.7 [9]): > 80 µM
- IC50 [12]: 32.1 µM

SMILES: COc1ccc2c(c1)c(CC(=O)O)c(C)n2C(=O)c1ccc(Cl)cc1 [INDOMETHACIN]
- IC50 (RAW264.7 [3]): 40.3 µM
- IC50 (RAW264.7 [4]): > 80 µM
- IC50 (RAW264.7 [9]): > 80 µM
- inhibition in vivo at 10 mg/kg (Mus musculus): 33.5%
